Data set [1] addresses PI3-kinase p110-alpha/p85-alpha (Homo sapiens, UniProt P42336). Kind of data set: Inhibition of N-terminal His6-tagged recombinant full length human p110alpha/untagged recombinant full length human p85alpha expressed in baculovirus infected Sf21 insect cells using PIP2 as substrate preincubated for 15 mins followed by substrate addition and measured after 1 hr by HTRF assay. A general note: In TR-FRET formats the signal depends on donor and acceptor labels being close together.

In data set [2] the target is PI3-kinase p110-delta/p85-alpha (Homo sapiens, UniProt O00329). In words: Inhibition of N-terminal His6-tagged recombinant full length human p110delta/untagged recombinant full length human p85alpha expressed in baculovirus infected Sf21 insect cells using PIP2 as substrate preincubated for 15 mins followed by substrate addition and measured after 1 hr by HTRF assay.
PI3-kinase p110-delta/p85-alpha, sequence (P27986 whole entry, one chain of several): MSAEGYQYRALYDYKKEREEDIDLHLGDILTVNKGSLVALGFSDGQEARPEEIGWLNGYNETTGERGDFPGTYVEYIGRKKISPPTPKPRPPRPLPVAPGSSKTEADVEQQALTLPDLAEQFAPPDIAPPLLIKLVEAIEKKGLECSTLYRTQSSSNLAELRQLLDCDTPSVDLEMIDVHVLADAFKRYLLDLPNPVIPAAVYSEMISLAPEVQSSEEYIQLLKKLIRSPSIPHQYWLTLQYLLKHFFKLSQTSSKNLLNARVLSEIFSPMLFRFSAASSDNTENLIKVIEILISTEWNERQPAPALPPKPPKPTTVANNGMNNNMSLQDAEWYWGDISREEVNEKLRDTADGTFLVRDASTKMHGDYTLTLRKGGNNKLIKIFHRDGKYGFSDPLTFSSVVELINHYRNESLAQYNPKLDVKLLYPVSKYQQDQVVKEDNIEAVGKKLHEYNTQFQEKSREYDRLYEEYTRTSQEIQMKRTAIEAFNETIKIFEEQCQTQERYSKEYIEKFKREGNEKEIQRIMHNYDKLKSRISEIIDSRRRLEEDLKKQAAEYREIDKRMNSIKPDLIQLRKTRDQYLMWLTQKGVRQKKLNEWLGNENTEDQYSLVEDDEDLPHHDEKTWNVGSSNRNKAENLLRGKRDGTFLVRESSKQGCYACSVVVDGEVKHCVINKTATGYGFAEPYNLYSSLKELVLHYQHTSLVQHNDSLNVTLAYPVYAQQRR

For data set [3], the target named is T1, Phosphatidylinositol 4,5-bisphosphate 3-kinase catalytic subunit delta isoform (Homo sapiens, UniProt O00329).
T1 sequence (O00329 whole entry): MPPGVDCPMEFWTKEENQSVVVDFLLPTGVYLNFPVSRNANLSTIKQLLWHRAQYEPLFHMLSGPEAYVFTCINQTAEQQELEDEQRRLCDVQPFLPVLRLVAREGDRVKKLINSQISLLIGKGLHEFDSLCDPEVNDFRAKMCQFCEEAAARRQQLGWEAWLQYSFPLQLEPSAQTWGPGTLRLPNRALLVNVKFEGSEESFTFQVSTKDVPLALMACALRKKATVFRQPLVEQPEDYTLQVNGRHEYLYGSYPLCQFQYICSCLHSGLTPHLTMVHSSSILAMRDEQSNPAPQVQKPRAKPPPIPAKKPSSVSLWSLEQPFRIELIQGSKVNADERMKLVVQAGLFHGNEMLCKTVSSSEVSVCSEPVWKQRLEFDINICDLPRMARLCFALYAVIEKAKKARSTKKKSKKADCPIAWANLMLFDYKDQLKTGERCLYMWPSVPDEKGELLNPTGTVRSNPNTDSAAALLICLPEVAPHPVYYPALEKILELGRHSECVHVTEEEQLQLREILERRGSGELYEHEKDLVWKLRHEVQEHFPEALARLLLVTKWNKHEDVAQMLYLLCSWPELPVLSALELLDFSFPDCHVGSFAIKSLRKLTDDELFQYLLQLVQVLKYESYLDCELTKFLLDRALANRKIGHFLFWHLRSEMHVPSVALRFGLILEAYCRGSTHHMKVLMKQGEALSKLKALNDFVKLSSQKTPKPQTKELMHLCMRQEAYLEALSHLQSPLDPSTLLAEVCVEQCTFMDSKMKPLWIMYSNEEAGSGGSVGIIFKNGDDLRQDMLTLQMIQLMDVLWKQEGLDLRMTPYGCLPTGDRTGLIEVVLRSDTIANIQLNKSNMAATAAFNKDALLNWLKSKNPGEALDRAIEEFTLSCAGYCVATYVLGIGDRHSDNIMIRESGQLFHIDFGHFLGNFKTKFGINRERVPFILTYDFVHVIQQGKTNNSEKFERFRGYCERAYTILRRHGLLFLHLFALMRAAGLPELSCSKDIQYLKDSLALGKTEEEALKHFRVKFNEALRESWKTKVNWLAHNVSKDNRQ
In words: Inhibition of PI3Kdelta in human Ramos cells assessed as reduction in anti-IgM-antibody-induced phosphorylation of AKT at Ser473 residue preincubated for 20 mins followed by anti-IgM antibody stimulation and measured after 30 mins by alphascreen assay. The format is cell-based. (In general: In Alpha technology, singlet oxygen from a donor bead excites a nearby acceptor bead.)

Data set [4] is described as follows: Inhibition of adenosine transporter in human HeLa cells assessed as reduction in [3H]adenosine uptake preincubated for 30 mins followed by [3H]adenosine addition and measured after 60 mins. The format is ADME, cell-based.
The nature of data set [5]: Plasma clearance in Wistar Han rat at 0.5 mg/kg, iv or 1 mg/kg, po. The format is ADME, organism-based.
The nature of data set [6]: Intrinsic clearance in Wistar Han rat at 0.5 mg/kg, iv or 1 mg/kg, po. The note with it: in vivo. The format is ADME, organism-based.
The nature of data set [7]: Volume of distribution in Wistar Han rat. The format is ADME. The note with it: in vivo.
Data set [8] can be described thus: Unbound volume of distribution in Wistar Han rat. The format is ADME. The note with it: in vivo.
Data set [9] in a line: Half-life in Wistar Han rat. The conditions noted are these: in vivo. The format is ADME.
A short description of data set [10]: Oral bioavailability in Wistar Han rat. The format is ADME, organism-based. The note with it: in vivo.
A short description of data set [11]: Protein binding in Wistar Han rat plasma. The format is ADME, cell-free. The note with it: read-out: PPB (converted).
The nature of data set [12]: Plasma clearance in Beagle dog at 0.05 mg/kg. The format is ADME, organism-based, Canis lupus familiaris.
Data set [13] is described as follows: Intrinsic clearance in Beagle dog at 0.05 mg/kg. The format is ADME, organism-based, Canis lupus familiaris. The note with it: in vivo.
A short description of data set [14]: Volume of distribution in Beagle dog. The format is ADME, Canis lupus familiaris. The note with it: in vivo.
The nature of data set [15]: Unbound volume of distribution in Beagle dog. The format is ADME, Canis lupus familiaris. The note with it: in vivo.
The nature of data set [16]: Half-life in Beagle dog. The note with it: in vivo. The format is ADME, Canis lupus familiaris.
A short description of data set [17]: Protein binding in Beagle dog plasma. The note with it: read-out: PPB (converted). The format is ADME, cell-free, Canis lupus familiaris.
Data set [18] in a line: Lipophilicity, log D of the compound. The format is physicochemical. The conditions noted are these: octanol/water.
Data set [19] in a line: Plasma clearance in Wistar Han rat at 0.05 mg/kg. The format is ADME, organism-based.
Data set [20] can be described thus: Intrinsic clearance in Wistar Han rat at 0.05 mg/kg. The format is ADME, organism-based. The note with it: in vivo.

These results are taken from ChEMBL document CHEMBL4346703, “Structure Overhaul Affords a Potent Purine PI3Kδ Inhibitor with Improved Tolerability” (J Med Chem, 2019).

PI3-kinase p110-alpha/p85-alpha, sequence (P27986 whole entry): as the sequence (P27986 whole entry, one chain of several) above
PI3-kinase p110-alpha/p85-alpha, sequence (P42336 whole entry): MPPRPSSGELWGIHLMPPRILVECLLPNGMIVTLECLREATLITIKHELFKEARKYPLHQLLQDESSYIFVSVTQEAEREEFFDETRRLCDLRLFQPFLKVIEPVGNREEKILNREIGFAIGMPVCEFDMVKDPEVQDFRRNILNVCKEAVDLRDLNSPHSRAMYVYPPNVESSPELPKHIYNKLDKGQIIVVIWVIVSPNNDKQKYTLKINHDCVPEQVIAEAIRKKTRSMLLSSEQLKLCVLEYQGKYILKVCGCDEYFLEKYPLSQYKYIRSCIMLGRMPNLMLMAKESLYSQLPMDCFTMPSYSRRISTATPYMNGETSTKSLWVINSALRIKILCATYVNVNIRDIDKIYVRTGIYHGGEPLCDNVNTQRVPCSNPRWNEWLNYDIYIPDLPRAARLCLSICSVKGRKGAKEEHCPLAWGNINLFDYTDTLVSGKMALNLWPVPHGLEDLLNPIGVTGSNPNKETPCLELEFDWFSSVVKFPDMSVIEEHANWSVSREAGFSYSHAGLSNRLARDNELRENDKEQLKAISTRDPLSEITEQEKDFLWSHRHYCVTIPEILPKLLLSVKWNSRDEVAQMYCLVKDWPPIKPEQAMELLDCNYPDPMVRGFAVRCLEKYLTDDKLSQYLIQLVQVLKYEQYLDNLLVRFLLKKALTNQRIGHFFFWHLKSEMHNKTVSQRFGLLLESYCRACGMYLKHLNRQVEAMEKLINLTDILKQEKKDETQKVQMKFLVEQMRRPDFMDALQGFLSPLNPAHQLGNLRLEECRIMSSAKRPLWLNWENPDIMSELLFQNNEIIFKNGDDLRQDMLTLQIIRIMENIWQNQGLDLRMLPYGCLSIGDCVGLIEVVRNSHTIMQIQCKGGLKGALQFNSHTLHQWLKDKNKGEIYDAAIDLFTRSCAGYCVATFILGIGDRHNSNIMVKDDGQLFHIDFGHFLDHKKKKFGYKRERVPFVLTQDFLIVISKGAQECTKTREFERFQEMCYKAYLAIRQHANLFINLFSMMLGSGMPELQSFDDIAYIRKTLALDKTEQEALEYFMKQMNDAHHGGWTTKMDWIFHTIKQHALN

Consider `CCn1ncc(-c2nc3c(O[C@H]4CCN(C(=O)C5CC5)C4)ncnc3n2C)c1C`, for which the IC50 (commonly the midpoint of a concentration-inhibition curve) in [1] was 0.169 µM; in data set [2], 0.0053 µM; in [3], 0.19 µM; in [4], 7.48 µM. The values for the clearance in [5] and in data set [12] were 23 mL/min/kg and 4.1 mL/min/kg, respectively. In addition, the results for the CL in data set [6] and in data set [13] were 98 mL/min/kg and 8 mL/min/kg, respectively. For the same compound, the Vd (commonly a proportionality between amount in the body and measured concentration, not a real space) in data set [7] was determined as 0.8 L/kg; in data set [14], 0.9 L/kg. The Vdu in data set [8] and in data set [15] was 2 L/kg each time. For the same compound, the values for the half-life in data set [9] and in [16] were 24 min and 162 min, respectively. In addition, the bioavailability (in general, dose-corrected exposure relative to a reference, in per cent) in data set [10] is 52%. Besides, the fraction unbound in [11] is 0.33; in data set [17], 0.59. Also, the logD – broadly, lipophilicity at a set pH, counting ionised and neutral species – in data set [18] turned out to be 1.2.

In the case of `CC[C@H](Nc1ncnc2c1nc(-c1cnn(CC)c1C)n2C)C(=O)N1C[C@@H](C)O[C@@H](C)C1`, the IC50 in [1] was determined as 0.262 µM; in [4], 3.13 µM. Also, the Vd in data set [7] is 1.1 L/kg; in data set [14], 0.9 L/kg. In addition, the Vdu was 3 L/kg in data set [8] and 2 L/kg in data set [15]. The results for the half-life in data set [9] and in data set [16] were 18 min and 72 min, respectively. For the same compound, the fraction unbound in data set [11] and in data set [17] was 0.42 each time. Moreover, the figures for the clearance in data set [12] and in data set [19] were 7.9 mL/min/kg and 50 mL/min/kg, respectively. Also, the CL stood at 25 mL/min/kg in [13] and 290 mL/min/kg in data set [20]. The logD in data set [18] came out at 1.7.
